Patent publication US10544106B2, “Certain chemical entities, compositions, and methods” (NeuPharma, Inc., priority 2016, dated 2020)

Key:
BTK = BTK (Homo sapiens (Human), UniProt Q06187); assay: Z'-LYTE kinase inhibition assay against BTK; type: biochemical; details: for inhibition at 0.1 µM: compound at 100 nM, ATP concentration at Km; for IC50: series of concentrations, GraphPad Prism 5
Procedure, shortened: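 Z′-LYTE FRET readout: 1.04-10.4 ng BTK with 2 μM Tyr 01 peptide, ATP at Km, in 50 mM HEPES pH 7.5, 10 mM MgCl2, 1 mM EGTA, 0.01% BRIJ-35, 1% DMSO. 60 min kinase reaction at room temperature, then 60 min development; IC50 from 10-point, 3-fold titrations.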

OCI-Ly10 cells = assay: OCI-Ly10 cell proliferation assay (Alamar Blue, 72 hours); type: cell-based; details: Homo sapiens
Experimental: OCI-Ly10 cells were cultured in Iscove's DMEM supplemented with 20% fetal bovine serum and 1× penicillin/streptomycin/glutamine. The cells were maintained in T175 flasks under 5% CO2 in a 37 ° C. humidified incubator for 5 days prior to plating and assay.
Cells were pooled by centrifugation (200 ref, 8 minutes) and resuspended in fresh medium to a concentration of 2.00E+05 cells/ml. 200 µl of the cell suspension was added to each well (40,000 cells/well) of a black-walled 96 well plate to which 1 μl of compound (n=3 per concentration) in 100% DMSO (0.5% final concentration) was added per well. Vehicle and cell free wells were also included in the assay. The dosed cells were cultured under normal conditions for 72 hours.
Cell proliferation is measured using the dye Alamar Blue (resazurin). Resazurin is reduced to resorufin by cellular enzymes and is fluorescent (544 nm excitation, 612 nm emission). Fluorescence intensity is proportional to cell number. Resazurin was prepared in PBS to a stock concentration of 440 μM. 40 μl of the 440 μM resazurin stock solution was added 3 hours prior to the 72 hour termination of the assay. The plate was returned to normal culture conditions and fluorescence measurements were collected using a Cytation3 multimode plate reader (Biotek) at 72 hours.
The scale utilized in Table 8 is as follows: ++ less than 50 nM and + greater than 50 nM.

Sequence of BTK (Q06187 whole entry): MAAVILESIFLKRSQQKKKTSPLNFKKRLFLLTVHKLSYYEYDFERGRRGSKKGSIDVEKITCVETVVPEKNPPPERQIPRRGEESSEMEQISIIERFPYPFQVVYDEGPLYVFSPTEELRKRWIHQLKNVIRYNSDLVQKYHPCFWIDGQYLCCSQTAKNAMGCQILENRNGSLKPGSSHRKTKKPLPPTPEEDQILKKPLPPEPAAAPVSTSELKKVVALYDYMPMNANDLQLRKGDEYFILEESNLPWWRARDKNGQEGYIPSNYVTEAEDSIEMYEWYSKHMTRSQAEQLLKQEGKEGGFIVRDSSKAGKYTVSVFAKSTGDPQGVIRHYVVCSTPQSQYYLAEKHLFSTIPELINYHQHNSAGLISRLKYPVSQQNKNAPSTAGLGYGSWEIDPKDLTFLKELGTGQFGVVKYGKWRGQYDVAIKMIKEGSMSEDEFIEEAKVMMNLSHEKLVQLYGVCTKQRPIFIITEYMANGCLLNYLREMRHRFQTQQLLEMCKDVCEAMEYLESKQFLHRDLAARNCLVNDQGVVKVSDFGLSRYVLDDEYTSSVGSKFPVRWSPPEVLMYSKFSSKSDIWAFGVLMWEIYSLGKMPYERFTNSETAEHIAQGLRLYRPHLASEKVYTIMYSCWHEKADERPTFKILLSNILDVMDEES

inhibition at 0.1 µM (BTK) [%]	IC50 (BTK) [nM]	IC50 (OCI-Ly10 cells) [nM]	Compound
> 50	< 100	< 50	C=CC(=O)N1CCC(c2nc(-c3ccc(Oc4cc(C(F)(F)F)ccn4)cc3)n3c(N)nccc23)C1 (stereo not shown) [C196, 1-(3-(5-amino-3-(4-((4-(trifluoromethyl)pyridin-2-yl)oxy)phenyl)imidazo[1,5-c]pyrimidin-1-yl)pyrrolidin-1-yl)prop-2-en-1-one]
–	< 100	< 50	C=CC(=O)N1CCC(c2nc(-c3ccc(C(=O)Nc4cc(OC)ccn4)cc3)n3c(N)nccc23)C1 (stereo not shown) [C240, 4-(1-(1-acryloylpyrrolidin-3-yl)-5-amino-imidazo[1,5-c]pyrimidin-3-yl)-N-(4-methoxypyridin-2-yl)benzamide]
> 50	< 100	< 50	C=CC(=O)N1CCC(c2nc(-c3ccc(Oc4ccccn4)cc3)n3c(N)nccc23)C1 (stereo not shown) [C186, 1-(3-(5-amino-3-(4-(pyridin-2-yloxy)phenyl)imidazo[1,5-c]pyrimidin-1-yl)pyrrolidin-1-yl)prop-2-en-1-one]
> 50	< 100	< 50	C=CC(=O)N1CCC(c2nc(-c3ccc(C(=O)Nc4ccccn4)cc3)n3c(N)ncnc23)C1 (stereo not shown) [C197, 4-(8-(1-acryloylpyrrolidin-3-yl)-4-amino-imidazo[1,5-a][1,3,5]triazin-6-yl)-N-(pyridin-2-yl)benzamide]
–	< 100	< 50	C=CC(=O)N1CCC(c2nc(-c3ccc(C(=O)Nc4cc(C5CC5)ccn4)cc3)n3c(N)nccc23)C1 (stereo not shown) [C238, 4-(1-(1-acryloylpyrrolidin-3-yl)-5-amino-imidazo[1,5-c]pyrimidin-3-yl)-N-(4-cyclopropylpyridin-2-yl)benzamide]
–	< 100	< 50	CC#CC(=O)N1CCCC(c2nc(-c3ccc(C(=O)Nc4ccccn4)cc3)n3c(N)nccc23)C1 (stereo not shown) [C236, 4-(5-amino-1-(1-(but-2-ynoyl)piperidin-3-yl)imidazo[1,5-c]pyrimidin-3-yl)-N-(pyridin-2-yl)benzamide]
–	< 100	< 50	C=CC(=O)N1CCCC(c2nc(-c3ccc(C(=O)Nc4ccccn4)cc3)n3c(N)nccc23)C1 (stereo not shown) [C235, 4-(1-(1-acryloylpiperidin-3-yl)-5-amino-imidazo[1,5-c]pyrimidin-3-yl)-N-(pyridin-2-yl)benzamide]
–	< 100	< 50	C=CC(=O)N1CCC(c2nc(-c3ccc(C(=O)Nc4ccccn4)c(F)c3)n3c(N)nccc23)C1 (stereo not shown) [C230, 4-(1-(1-acryloylpyrrolidin-3-yl)-5-amino-imidazo[1,5-c]pyrimidin-3-yl)-2-fluoro-N-(pyridin-2-yl)benzamide]
> 50	< 100	< 50	C=CC(=O)N1CCC(c2nc(-c3ccc(C(=O)Nc4ccccn4)cc3)n3c(N)nccc23)C1 (stereo not shown) [C185, 4-(1-(1-acryloylpyrrolidin-3-yl)-5-amino-imidazo[1,5-c]pyrimidin-3-yl)-N-(pyridin-2-yl)benzamide]
> 50	< 100	< 50	CC#CC(=O)N1CCC(c2nc(-c3ccc(C(=O)Nc4ccccn4)cc3)n3c(N)nccc23)C1 (stereo not shown) [C204, 4-(5-amino-1-(1-(but-2-ynoyl)pyrrolidin-3-yl)imidazo[1,5-c]pyrimidin-3-yl)-N-(pyridin-2-yl)benzamide]
> 50	< 100	< 50	C=CC(=O)N1CCC(c2nc(-c3ccc(C(=O)Nc4cc(C5CC5)ccn4)cc3)n3c(N)ncnc23)C1 (stereo not shown) [C199, 4-(8-(1-acryloylpyrrolidin-3-yl)-4-amino-imidazo[1,5-a][1,3,5]triazin-6-yl)-N-(4-cyclopropylpyridin-2-yl)benzamide]
> 50	< 100	< 50	C=CC(=O)N1CCC(c2nc(-c3ccc(Oc4cc(OC)ccn4)cc3)n3c(N)nccc23)C1 (stereo not shown) [C210, 1-(3-(5-amino-3-(4-((4-methoxypyridin-2-yl)oxy)phenyl)imidazo[1,5-c]pyrimidin-1-yl)pyrrolidin-1-yl)prop-2-en-1-one]

Continued, compound first:

Compound	inhibition at 0.1 µM (BTK) [%]	IC50 (BTK) [nM]	IC50 (OCI-Ly10 cells) [nM]
C=CC(=O)Nc1cccc(-c2cc(-c3ccc(Oc4ccccn4)cc3F)cc3cncnc23)c1 [C112, N-(3-(6-(2-fluoro-4-(pyridin-2-yloxy)phenyl)quinazolin-8-yl)phenyl)acrylamide]	> 50	< 100	< 50
C=CC(=O)Nc1cccc(-c2cc(-c3ccc(C(=O)Nc4ccccn4)c(Cl)c3)cc3cncnc23)c1 [C163, 4-(8-(3-acrylamidophenyl)quinazolin-6-yl)-2-chloro-N-(pyridin-2-yl)benzamide]	> 50	< 100	> 50
C=CC(=O)N1CCC(c2cc(-c3ccc(C(=O)Nc4cc(F)ccn4)cc3)n3cnccc23)C1 (stereo not shown) [C065, 4-(5-(1-acryloylpyrrolidin-3-yl)pyrrolo[1,2-c]pyrimidin-7-yl)-N-(4-fluoropyridin-2-yl)benzamide]	> 50	< 100	< 50
C=CC(=O)Nc1cccc(-c2cc(-c3ccc(C(=O)N4CCCC4)cc3)cc3cncnc23)c1 [C102, N-(3-(6-(4-(pyrrolidine-1-carbonyl)phenyl)quinazolin-8-yl)phenyl)acrylamide]	> 50	< 100	> 50
C=CC(=O)Nc1cccc(-c2cc(-c3ccc(Oc4cc(C#N)ccn4)cc3)cc3cncnc23)c1 [C184, N-(3-(6-(4-((4-cyanopyridin-2-yl)oxy)phenyl)quinazolin-8-yl)phenyl)acrylamide]	> 50	< 100	< 50
C=CC(=O)Nc1cccc(-c2cc(-c3cccnc3)cc3cnc(N)nc23)c1 [C035, N-(3-(2-amino-6-(pyridin-3-yl)quinazolin-8-yl)phenyl)acrylamide]	> 50	< 100	> 50
C=CC(=O)Nc1cccc(-c2cc(-c3ccc(Oc4ccccn4)cc3OC)cc3cncnc23)c1 [C121, N-(3-(6-(2-methoxy-4-(pyridin-2-yloxy)phenyl)quinazolin-8-yl)phenyl)acrylamide]	> 50	< 100	> 50
C=CC(=O)Nc1cccc(-c2cc(-c3ccc(C(=O)Nc4cc(C5CC5)ccn4)c(F)c3)cc3cncnc23)c1 [C139, 4-(8-(3-acrylamidophenyl)quinazolin-6-yl)-N-(4-cyclopropylpyridin-2-yl)-2-fluorobenzamide]	> 50	< 100	< 50
C=CC(=O)Nc1cccc(-c2cc(-c3ccc(Oc4cc(C5CC5)ccn4)cc3)cc3cncnc23)c1 [C183, N-(3-(6-(4-((4-cyclopropylpyridin-2-yl)oxy)phenyl)quinazolin-8-yl)phenyl)acrylamide]	> 50	< 100	< 50
C=CC(=O)Nc1cccc(-c2cc(-c3ccc(Oc4ccccn4)c(F)c3)cc3cncnc23)c1 [C135, N-(3-(6-(3-fluoro-4-(pyridin-2-yloxy)phenyl)quinazolin-8-yl)phenyl)acrylamide]	> 50	< 100	< 50
C=CC(=O)Nc1cccc(-c2cc(-c3ccc(Oc4ccccn4)cc3)cc3cncnc23)c1 [C099, N-(3-(6-(4-(pyridin-2-yloxy)phenyl)quinazolin-8-yl)phenyl)acrylamide]	> 50	< 100	< 50
C=CC(=O)Nc1cccc(-c2cc(-c3ccc(C(=O)Nc4cc(C5CC5)ccn4)cc3)cc3cncnc23)c1 [C131, 4-(8-(3-acrylamidophenyl)quinazolin-6-yl)-N-(4-cyclopropylpyridin-2-yl)benzamide]	> 50	< 100	< 50
C=CC(=O)Nc1cccc(-c2cc(-c3ccc(C(=O)Nc4cc(C5CC5)ccn4)cc3Cl)cc3cncnc23)c1 [C120, 4-(8-(3-acrylamidophenyl)quinazolin-6-yl)-3-chloro-N-(4-cyclopropylpyridin-2-yl)benzamide]	> 50	< 100	< 50
